One block for each molecule: values may come before it. The source made the active and inactive calls. The calls are words filed in the database; no cut-off is given here.
What was measured:
[1] = target: T1, Tryptophan 5-hydroxylase 1 (Homo sapiens, UniProt P17752); assay: Inhibition of TPH1
T1 sequence (P17752 whole entry): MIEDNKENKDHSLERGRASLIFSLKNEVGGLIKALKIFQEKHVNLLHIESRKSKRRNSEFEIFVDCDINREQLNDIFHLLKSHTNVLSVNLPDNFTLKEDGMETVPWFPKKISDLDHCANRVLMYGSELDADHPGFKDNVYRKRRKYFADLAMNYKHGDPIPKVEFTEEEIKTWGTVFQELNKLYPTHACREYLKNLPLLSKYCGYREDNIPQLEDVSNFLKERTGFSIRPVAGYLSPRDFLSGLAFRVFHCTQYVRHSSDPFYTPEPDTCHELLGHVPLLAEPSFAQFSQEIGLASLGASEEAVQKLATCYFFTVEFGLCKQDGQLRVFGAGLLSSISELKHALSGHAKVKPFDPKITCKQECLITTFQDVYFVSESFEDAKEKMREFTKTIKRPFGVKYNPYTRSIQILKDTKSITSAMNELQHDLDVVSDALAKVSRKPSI

[2] = target: T2, Tryptophan 5-hydroxylase 1 (Rattus norvegicus, UniProt P09810); assay: Inhibition of TPH1 in RBL cells assessed as inhibition of serotonin biosynthesis; type: cell-based
T2 sequence (P09810 whole entry): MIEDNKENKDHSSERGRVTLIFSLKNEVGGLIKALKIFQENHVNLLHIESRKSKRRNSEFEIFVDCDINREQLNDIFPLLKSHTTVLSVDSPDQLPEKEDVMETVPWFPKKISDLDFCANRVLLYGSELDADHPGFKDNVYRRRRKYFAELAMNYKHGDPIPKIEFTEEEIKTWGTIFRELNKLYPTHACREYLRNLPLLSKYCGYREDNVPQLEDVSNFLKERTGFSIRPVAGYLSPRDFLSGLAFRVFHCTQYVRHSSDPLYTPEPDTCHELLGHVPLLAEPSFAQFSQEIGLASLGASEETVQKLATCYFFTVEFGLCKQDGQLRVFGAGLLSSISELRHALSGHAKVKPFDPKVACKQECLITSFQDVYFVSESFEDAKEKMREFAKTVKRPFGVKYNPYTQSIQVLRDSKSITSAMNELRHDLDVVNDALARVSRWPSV

RBL = assay: Ratio of EC50 for TPH1 in RBL cells to IC50 for TPH1; type: cell-based
Mus musculus [3] = assay: Reduction of 5HT level in mouse intestine at 90 mg/kg, po twice a day; type: functional; parameters: scale not given: the % may be the effect or the level left
[4] = Ratio of drug level in brain to plasma in C57 albino mouse at 10 mg/kg, po after 6 hrs; type: ADME, organism-based; parameters: dose 10 mg/kg, route oral; settings: read-out: BPR
[5] = Drug level in C57 albino mouse brain at 10 mg/kg, po after 6 hrs; type: ADME, organism-based; parameters: dose 10 mg/kg, route oral; settings: read-out: Drug uptake
Mus musculus [6] = assay: Reduction of 5HT level in mouse colon at 90 mg/kg, po twice a day; type: functional; parameters: scale not given: the % may be the effect or the level left
[7] = Cmax in C57 albino mouse at 10 mg/kg, po; type: ADME, organism-based; parameters: dose 10 mg/kg, route oral; settings: in vivo
Mus musculus [8] = assay: Reduction of 5HT level in mouse colon at 30 mg/kg, po twice a day; type: functional; parameters: scale not given: the % may be the effect or the level left
[9] = AUC (0 to 24 hrs) in C57 albino mouse at 10 mg/kg, po; type: ADME, organism-based; parameters: time < 24 hr, dose 10 mg/kg, route oral; settings: plasma
[10] = Ratio of drug level in brain to plasma in C57 albino mouse at 10 mg/kg, po after 2 hrs; type: ADME, organism-based; parameters: dose 10 mg/kg, route oral; settings: read-out: BPR
[11] = Oral bioavailability in C57 albino mouse at 10 mg/kg; type: ADME, organism-based; settings: in vivo
[12] = Half life in C57 albino mouse at 10 mg/kg, po; type: ADME, organism-based; parameters: dose 10 mg/kg, route oral; settings: in vivo
[13] = Half life in C57 albino mouse at 1 mg/kg, iv; type: ADME, organism-based; parameters: dose 1 mg/kg, route intravenous; settings: in vivo
[14] = Clearance in C57 albino mouse plasma at 1 mg/kg, iv; type: ADME, organism-based; parameters: dose 1 mg/kg, route intravenous
[15] = AUC (0 to 6 hrs) in C57 albino mouse at 1 mg/kg, iv; type: ADME, organism-based; parameters: time < 6 hr, dose 1 mg/kg, route intravenous; settings: plasma
Mus musculus [16] = assay: Reduction of 5HT level in mouse intestine at 30 mg/kg, po twice a day; type: functional; parameters: scale not given: the % may be the effect or the level left
[17] = Volume of distribution at steady state in C57 albino mouse 1 mg/kg, iv; type: ADME, organism-based; parameters: dose 1 mg/kg, route intravenous; settings: in vivo, read-out: Vdss
[18] = Drug level in C57 albino mouse brain after 24 hrs; type: ADME, tissue-based; settings: read-out: Drug uptake
[19] = Tmax in C57 albino mouse at 10 mg/kg, po; type: ADME, organism-based; parameters: dose 10 mg/kg, route oral; settings: in vivo
[20] = Drug level in C57 albino mouse brain at 10 mg/kg, po after 2 hrs; type: ADME, organism-based; parameters: dose 10 mg/kg, route oral; settings: read-out: Drug uptake
[21] = AUC (0 to infinity) in C57 albino mouse at 1 mg/kg, iv; type: ADME, organism-based; parameters: time infinity, dose 1 mg/kg, route intravenous; settings: plasma
[22] = AUC (0 to infinity) in C57 albino mouse at 10 mg/kg, po; type: ADME, organism-based; parameters: time infinity, dose 10 mg/kg, route oral; settings: plasma
Mus musculus [23] = assay: Reduction of 5HT level in mouse intestine at 90 mg/kg, po twice a day after 3 days; type: functional, organism-based; parameters: dose 90 mg/kg
Mus musculus [24] = assay: Reduction of 5HT level in mouse brain at 45 mg/kg, po twice a day after 3 days; type: functional, organism-based; parameters: dose 45 mg/kg
Mus musculus [25] = assay: Reduction of 5HT level in mouse intestine at 45 mg/kg, po twice a day after 3 days; type: functional, organism-based; parameters: dose 45 mg/kg
Mus musculus [26] = assay: Reduction of 5HT level in mouse brain at 90 mg/kg, po twice a day after 3 days; type: functional, organism-based; parameters: dose 90 mg/kg

- IC50 [1]: 0.24 µM
SMILES: N[C@@H](Cc1ccc(-c2cnc(NCC3CCCCC3)cn2)cc1)C(=O)O

- IC50 [1]: 0.38 µM
- EC50 [2]: 11 µM
SMILES: C[C@@H](Oc1cc(-c2ccc(C[C@H](N)C(=O)O)cc2)nc(N)n1)c1ccc2ccccc2c1

- IC50 [1]: 0.024 µM
SMILES: Nc1nc(NCc2ccc3ccccc3c2)nc(-c2ccc(C[C@H](N)C(=O)O)cc2)n1

- IC50 [1]: 0.89 µM
SMILES: C[C@@H](Nc1nc(N)nc(-c2ccc(CC(N)C(=O)O)nc2)n1)c1ccc2ccccc2c1 (some centres not stated)

- IC50 [1]: > 10 µM
SMILES: CCn1c2ccccc2c2cc(CNc3ccc(-c4ccc(C[C@H](N)C(=O)O)cc4)nc3)ccc21

- IC50 [1]: 0.044 µM
SMILES: N[C@@H](Cc1ccc(-c2cnc(NCc3ccc(-c4ccccc4)cc3)cn2)cc1)C(=O)O

- IC50 [1]: 12.6 µM
SMILES: C[C@@H](Nc1nc(N)nc(-c2ccn(C[C@H](N)C(=O)O)n2)n1)c1ccc2ccccc2c1

- IC50 [1]: 0.18 µM
- EC50 [2]: 0.51 µM
SMILES: Nc1nc(OC(c2ccc3ccccc3c2)C(F)(F)F)cc(-c2ccc(C[C@H](N)C(=O)O)cc2)n1 (some centres not stated)
- Ratio (RBL): 3

- IC50 [1]: 0.2 µM
SMILES: C[C@@H](Nc1nc(N)nc(-c2ccc(CC(N)C(=O)O)c(F)c2)n1)c1ccc2ccccc2c1 (some centres not stated)

- IC50 [1]: 0.069 µM
SMILES: COc1ccc(CNc2cnc(-c3ccc(C[C@H](N)C(=O)O)cc3)cn2)cc1OC

- IC50 [1]: 0.97 µM
SMILES: COc1ccc(CNc2ccc(-c3ccc(C[C@H](N)C(=O)O)cc3)nn2)cc1OC1CCCC1

- IC50 [1]: 3.77 µM
SMILES: C[C@@H](Nc1nc(N)nc(-c2ccc(C(N)CC(=O)O)cc2)n1)c1ccc2ccccc2c1 (some centres not stated)

- IC50 [1]: 0.032 µM
- EC50 [2]: 1.7 µM
SMILES: C[C@@H](Nc1cc(-c2ccc(C[C@H](N)C(=O)O)cc2)nc(N)n1)c1ccc2ccccc2c1

- IC50 [1]: > 11 µM
SMILES: C[C@@H](Nc1nc(N)nc(-c2cccc(CC(N)C(=O)O)c2)n1)c1ccc2ccccc2c1 (some centres not stated)

- Kp at 6 h [4]: 0.01
- concentration at 6 h [5]: 6.15 nM
- Cmax [7]: 641 nM
- AUC(0-t) at 24 h [9]: 6.09 µM·h
- Kp at 2 h [10]: 0.01
- bioavailability [11]: 7.6%
- half-life [12]: 5.98 h
- half-life [13]: 3.26 h
- clearance [14]: 0.2 L/h/kg
- AUC(0-t) at 6 h [15]: 6.2 µM·h
- Vd [17]: 0.73 L/kg
- concentration at 24 h [18]: 0.38 nM
- Tmax [19]: 3.25 h
- concentration at 2 h [20]: 6.05 nM
- AUC(0-inf) [21]: 8.54 µM·h
- AUC(0-inf) [22]: 6.5 µM·h
SMILES: Nc1nc(OC(c2ccc(-c3cccc(F)c3)cc2)C(F)(F)F)cc(-c2ccc(C[C@H](N)C(=O)O)cc2)n1 (some centres not stated)
- Activity (Mus musculus [3]): 70%
- Activity (Mus musculus [6]): 36%
- Activity (Mus musculus [8]): 24%
- Activity (Mus musculus [16]): 55%

- IC50 [1]: 0.031 µM
SMILES: CCn1c2ccccc2c2cc(CNc3cnc(-c4ccc(C[C@H](N)C(=O)O)cc4)cn3)ccc21

- IC50 [1]: 0.11 µM
SMILES: N#Cc1ccc(CNc2cnc(-c3ccc(C[C@H](N)C(=O)O)cc3)cn2)cc1

The remaining lines, values behind:

SMILES: Cc1ccccc1-c1ccccc1CNc1cnc(-c2ccc(C[C@H](N)C(=O)O)cc2)cn1
- IC50 [1]: 0.04 µM

SMILES: N[C@@H](Cc1ccc(-c2cnc(NCc3ccoc3)cn2)cc1)C(=O)O
- IC50 [1]: 0.96 µM

SMILES: Nc1nc(OC(c2ccccc2-n2ccc(C(F)(F)F)n2)C(F)(F)F)cc(-c2ccc(C[C@H](N)C(=O)O)cc2)n1 (some centres not stated)
- IC50 [1]: 0.029 µM
- EC50 [2]: 0.07 µM

SMILES: COc1ccc(CNc2cnc(-c3ccc(C[C@H](N)C(=O)O)cc3)cn2)cc1OC1CCCC1
- IC50 [1]: 0.045 µM

SMILES: N[C@@H](Cc1ccc(-c2cnc(NCc3ccccn3)cn2)cc1)C(=O)O
- IC50 [1]: 6.15 µM

SMILES: Nc1nc(OC(c2sccc2-c2ccco2)C(F)(F)F)cc(-c2ccc(C[C@H](N)C(=O)O)cc2)n1 (some centres not stated)
- IC50 [1]: 0.054 µM
- EC50 [2]: 0.063 µM

SMILES: C[C@@H](Nc1nc(N)nc(N2CCC(C[C@H](N)C(=O)O)CC2)n1)c1ccc2ccccc2c1
- IC50 [1]: 0.77 µM

SMILES: COc1ccc(CNc2ccc(-c3ccc(C[C@H](N)C(=O)O)cc3)cc2)cc1OC1CCCC1
- IC50 [1]: > 10 µM

SMILES: N[C@@H](Cc1ccc(-c2cnc(NCc3cnc4ccccc4c3)cn2)cc1)C(=O)O
- IC50 [1]: 0.19 µM

SMILES: Cc1cccc(-c2ccccc2C(Oc2cc(-c3ccc(C[C@H](N)C(=O)O)cc3)nc(N)n2)C(F)(F)F)c1 (some centres not stated)
- IC50 [1]: 0.07 µM
- EC50 [2]: 0.056 µM

SMILES: CCOC(=O)[C@@H](N)Cc1ccc(-c2cc(OC(c3ccc(-c4cccc(F)c4)cc3)C(F)(F)F)nc(N)n2)cc1 (some centres not stated)
- Activity (Mus musculus [23]): Active
- Activity (Mus musculus [24]): inactive
- Activity (Mus musculus [25]): Active
- Activity (Mus musculus [26]): Active

SMILES: Nc1nc(OC(c2ccccc2-c2ccco2)C(F)(F)F)cc(-c2ccc(C[C@H](N)C(=O)O)cc2)n1 (some centres not stated)
- IC50 [1]: 0.024 µM
- EC50 [2]: 0.048 µM

SMILES: N[C@@H](Cc1ccc(-c2cnc(NCC3CCc4ccccc4C3)cn2)cc1)C(=O)O (some centres not stated)
- IC50 [1]: 0.046 µM

SMILES: C[C@@H](Nc1nc(N)nc(-c2ccc(CC(C)(N)C(=O)O)cc2)n1)c1ccc2ccccc2c1 (some centres not stated)
- IC50 [1]: 11.1 µM

SMILES: N[C@@H](Cc1ccc(-c2cnc(NCc3ccc4ccccc4c3)cn2)cc1)C(=O)O
- IC50 [1]: 0.013 µM

— ChEMBL document CHEMBL1155012, “Modulation of peripheral serotonin levels by novel tryptophan hydroxylase inhibitors for the potential treatment of functional gastrointestinal disorders” (J Med Chem, 2008)
